Values of other authors in paper PMC10049421, “Anticancer Activity of Sunitinib Analogues in Human Pancreatic Cancer Cell Cultures under Normoxia and Hypoxia” (International Journal of Molecular Sciences, 2023).

How the values were obtained:
MIA PaCa-2 cell line [1] = test system: MIA PaCa-2 cell line; set-up: method as in PMID 30341797; details: MIA PaCa-2, 5 μM; cited from earlier work
MIA PaCa-2 cell line [2] = test system: MIA PaCa-2 cell line; set-up: method as in PMID 26176887; details: MIA PaCa-2, 1 μM, 24 h and 48 h; cited from earlier work
PANC-1 cell monolayer = details: PANC-1, 1 μM, 24 h and 48 h; cited from earlier work
PANC-1 cells = details: PANC-1, 5 μM; cited from earlier work

Nc1ccn([C@@H]2O[C@H](CO)[C@@H](O)C2(F)F)c(=O)n1 [gemcitabine]
colony formation (MIA PaCa-2 cell line [1]): statistically significantly reduced
'wounds' compared to the control (MIA PaCa-2 cell line [2]): did not show a significant difference
'wounds' compared to the control (PANC-1 cell monolayer): did not show a significant difference
colony formation (PANC-1 cells): statistically significantly reduced
